# Data: US12396459B2, “Synergistically effective herbicide composition comprising pyridate and at least one defined 4-HPPD inhibitor” (BELCHIM CROP PROTECTION NV, priority 2018, dated 2025)
# Assays:
# Format in all cases: in vivo
# [1] = system: Abutilon theophrasti; assay: Field trial post-emergence in maize: ABUTH; details: 31-48 DAA; # = 2; g a.c./ha: PYR 300, MES 100, PYR + MES 300 + 90
# Experimental: (§1) Herbicidal activity of herbicide compositions according to the first aspect of the present invention with regard to different types of unwanted vegetation was determined during trials performed on test fields (field trials). Individual compositions comprising pyridate and individual compositions comprising a defined 4-HPPD inhibitor are compared with a herbicide composition according to the invention comprising both pyridate and a defined 4-HPPD inhibitor. The expected activity of the combination of the active compounds pyridate and a defined 4-HPPD inhibitor is calculated according to above mentioned calculation method by Colby, in order to evaluate a synergistic effect between pyridate and a defined 4-HPPD inhibitor.
# (§2) Herbicidal activity was determined by applying herbicide compositions on emerged unwanted vegetation on fields where maize was cultivated. Pyridate and a defined 4-HPPD inhibitor were applied as a tank mixture by mixing these active compounds prior to use in a spray tank. The corresponding mixture was in the form of a spray liquor. […] At a specified number of days after application (DAA), the degree of damage to the unwanted vegetation is rated in % of plants of unwanted vegetation that were killed, which was assessed by visually controlling the plants.
# [2] = system: Anagallis arvensis; assay: Field trial post-emergence in maize: ANGAR; details: 7-14 DAA; # = 2; g a.c./ha: PYR 300, MES 100, PYR + MES 300 + 90
# Experimental: as §1, §2
# [3] = system: Brassica napus (winter); assay: Field trial post-emergence in maize: BRSNW; details: # = 1, g a.c./ha: PYR 300, MES 100, PYR + MES 300 + 90
# Experimental: as §1
# (§3) Herbicidal activity was determined by applying herbicide compositions on emerged unwanted vegetation on fields where maize was cultivated. Pyridate and a defined 4-HPPD inhibitor were applied as a tank mixture by mixing these active compounds prior to use in a spray tank. The corresponding mixture was in the form of a spray liquor. Besides, spray liquors of individual compositions comprising pyridate and of individual compositions comprising a defined 4-HPPD inhibitor were used. Test plants of unwanted vegetation with a growth stage corresponding to BBCH 10-18 (according to the extended BBCH-scale) were sprayed with the active compound preparations such that particular desired amounts of active compounds are applied per unit area. Spray liquor was diluted with water to arrive at an application volume of 50 to 450 L/ha. At a specified number of days after application (DAA), the degree of damage to the unwanted vegetation is rated in % of plants of unwanted vegetation that were killed, which was assessed by visually controlling the plants.
# [4] = system: Datura stramonium; assay: Field trial post-emergence in maize: DATST; details: 7-14 DAA; # = 2; g a.c./ha: PYR 300, MES 100, PYR + MES 300 + 90
# Experimental: as §1, §2
# [5] = system: Tripleurospermum inodorum; assay: Field trial post-emergence in maize: MATIN; details: for herbicidal effect (h.e.): # = 1, g a.c./ha: PYR 300, MES 100, PYR + MES 300 + 90
# Experimental: as §1, §3
# [6] = system: Papaver rhoeas; assay: Field trial post-emergence in maize: PAPRH; details: # = 1, g a.c./ha: PYR 300, MES 100, PYR + MES 300 + 90
# Experimental: as §1, §3
# [7] = system: Poa annua; assay: Field trial post-emergence in maize: POAAN; details: for herbicidal effect (h.e.): g a.c./ha: PYR 300, MES 100, PYR + MES 300 + 90
# Experimental: as §1, §3
# [8] = system: Sonchus oleraceus; assay: Field trial post-emergence in maize: SONOL; details: # = 1, g a.c./ha: PYR 300, MES 100, PYR + MES 300 + 90
# Experimental: as §1, §3
# [9] = system: Sorghum halepense; assay: Field trial post-emergence in maize: SORHA; details: 7-14 DAA; # = 1; g a.c./ha: PYR 300, MES 100, PYR + MES 300 + 90
# Experimental: as §1, §2
# [10] = system: Stellaria media; assay: Field trial post-emergence in maize: STEME
# Experimental: as §1, §3
# [11] = system: Amaranthus retroflexus; assay: Field trial post-emergence in maize: AMARE; details: 13-14 DAA, # = 1
# Experimental: as §1, §3
# [12] = system: Solanum nigrum; assay: Examples 6-8 herbicidal effect: SOLNI; details: 7 DAA
# [13] = system: Geranium dissectum; assay: Examples 6-8 herbicidal effect: GERDI; details: 7 DAA
# [14] = system: Echinochloa crus-galli; assay: Examples 6-8 herbicidal effect: ECHCG; details: 7 DAA
# [15] = system: Poa annua; assay: Examples 6-8 herbicidal effect: POAAN; details: 7 DAA
# [16] = system: Atriplex patula; assay: Field trial post-emergence in maize: ATXPA
# Experimental: as §1, §3
# (§4) Example 1 concerns a herbicide composition comprising a combination of pyridate and mesotrione, which was applied post-emergence on unwanted vegetation on a field where maize was cultivated, according to the test conditions mentioned above.
# [17] = system: Galium aparine; assay: Field trial post-emergence in maize: GALAP
# Experimental: as §1, §3, §4
# [18] = system: Matricaria chamomilla; assay: Field trial post-emergence in maize: MATCH
# Experimental: as §1, §3, §4
# [19] = system: Setaria viridis; assay: Field trial post-emergence in maize: SETVI
# Experimental: as §1, §3, §4
# [20] = g a.c./ha: PYR 10, TEM 22, PYR + TEM 10 + 100
# [21] = g a.c./ha: PYR 300, PYR + MES 300 + 80
# [22] = g a.c./ha: PYR 300, SCT 300, PYR + SCT 300 + 300
# [23] = g a.c./ha: PYR 300, TEM 100, PYR + TEM 300 + 100
# [24] = g a.c./ha: PYR 450, SCT 450, PYR + SCT 300 + 450
# [25] = g a.c./ha: PYR 600, PYR + SCT 600 + 300
# [26] = g a.c./ha: PYR 900, TEM 44, PYR + TEM 900 + 44
compound,measurement,setting,value
"CCCCCCCCSC(=O)Oc1cc(Cl)nnc1-c1ccccc1 [PYR, (6-chloro-3-phenylpyridazin-4-yl) octylsulfanylformate]",herbicidal effect (h.e.),[1],73%
same,herbicidal effect (h.e.),[2],6%
same,herbicidal effect (h.e.),[3]; 7-14 DAA,5%
same,herbicidal effect (h.e.),[3]; 18-28 DAA,5%
same,herbicidal effect (h.e.),[4],70%
same,herbicidal effect (h.e.),[5]; 7-14 DAA,3%
same,herbicidal effect (h.e.),[5]; 18-28 DAA,5%
same,herbicidal effect (h.e.),[5]; 31-48 DAA,5%
same,PYR h.e.,[5]; MATIN 24-31 DAA 300 g a.c./ha,75%
same,PYR h.e.,[5]; MATIN 24-31 DAA 600 g a.c./ha,60%
same,PYR h.e.,[5]; MATIN 24-31 DAA 900 g a.c./ha,55%
same,herbicidal effect (h.e.),[6]; 18-28 DAA,3%
same,herbicidal effect (h.e.),[6]; 31-48 DAA,3%
same,herbicidal effect (h.e.),"[7]; 7-14 DAA, # = 2",25%
same,herbicidal effect (h.e.),"[7]; 18-28 DAA, # = 3",17%
same,herbicidal effect (h.e.),"[7]; 31-48 DAA, # = 2",17%
same,PYR h.e.,[7]; POAAN 14-20 DAA 300 g a.c./ha,7%
same,PYR h.e.,[7]; POAAN 14-20 DAA 600 g a.c./ha,17%
same,PYR h.e.,[7]; POAAN 14-20 DAA 900 g a.c./ha,36%
same,PYR h.e.,[7]; POAAN 24-31 DAA 300 g a.c./ha,5%
same,PYR h.e.,[7]; POAAN 24-31 DAA 600 g a.c./ha,13%
same,PYR h.e.,[7]; POAAN 24-31 DAA 900 g a.c./ha,28%
same,herbicidal effect (h.e.),[8]; 7-14 DAA,93%
same,herbicidal effect (h.e.),[8]; 18-28 DAA,51%
same,herbicidal effect (h.e.),[8]; 31-48 DAA,37%
same,herbicidal effect (h.e.),[9],58%
same,herbicidal effect (h.e.),"[10]; 18-28 DAA, # = 4, g a.c./ha: PYR 300, MES 100, PYR + MES 300 + 90",35%
same,PYR h.e.,[10]; STEME 14-20 DAA 300 g a.c./ha,18%
same,PYR h.e.,[10]; STEME 14-20 DAA 600 g a.c./ha,42%
same,PYR h.e.,[10]; STEME 14-20 DAA 900 g a.c./ha,55%
same,PYR h.e.,[10]; STEME 24-31 DAA 300 g a.c./ha,16%
same,PYR h.e.,[10]; STEME 24-31 DAA 600 g a.c./ha,30%
same,PYR h.e.,[10]; STEME 24-31 DAA 900 g a.c./ha,50%
same,herbicidal effect (h.e.),"[11]; g a.c./ha: PYR 450, MES 144, PYR + MES 450 + 144",72%
same,herbicidal effect (h.e.),"[11]; g a.c./ha: PYR 450, TOP 12.4, PYR + TOP 450 + 12.4",72%
same,herbicidal effect (h.e.),[12]; [20],0%
same,herbicidal effect (h.e.),[12]; [21],11%
same,herbicidal effect (h.e.),[12]; [22],10%
same,herbicidal effect (h.e.),[12]; [23],10%
same,herbicidal effect (h.e.),[12]; [24],10%
same,herbicidal effect (h.e.),[12]; [25],28%
same,herbicidal effect (h.e.),[12]; [26],100%
same,herbicidal effect (h.e.),[13]; [20],0%
same,herbicidal effect (h.e.),[13]; [21],5%
same,herbicidal effect (h.e.),[13]; [22],15%
same,herbicidal effect (h.e.),[13]; [23],5%
same,herbicidal effect (h.e.),[13]; [24],30%
same,herbicidal effect (h.e.),[13]; [25],15%
same,herbicidal effect (h.e.),[13]; [26],10%
same,herbicidal effect (h.e.),[14]; [20],0%
same,herbicidal effect (h.e.),[14]; [21],0%
same,herbicidal effect (h.e.),[14]; [22],0%
same,herbicidal effect (h.e.),[14]; [23],0%
same,herbicidal effect (h.e.),[14]; [24],0%
same,herbicidal effect (h.e.),[14]; [25],0%
same,herbicidal effect (h.e.),[14]; [26],5%
same,herbicidal effect (h.e.),[15]; [20],0%
same,herbicidal effect (h.e.),[15]; [21],3%
same,herbicidal effect (h.e.),[15]; [22],2%
same,herbicidal effect (h.e.),[15]; [23],10%
same,herbicidal effect (h.e.),[15]; [24],2%
same,herbicidal effect (h.e.),[15]; [25],0%
same,herbicidal effect (h.e.),[15]; [26],0%
same,PYR h.e.,[16]; ATXPA 24-31 DAA 300 g a.c./ha,43%
same,PYR h.e.,[16]; ATXPA 24-31 DAA 600 g a.c./ha,49%
same,PYR h.e.,[17]; GALAP 14-20 DAA 300 g a.c./ha,20%
same,PYR h.e.,[17]; GALAP 14-20 DAA 600 g a.c./ha,30%
same,PYR h.e.,[17]; GALAP 14-20 DAA 900 g a.c./ha,35%
same,PYR h.e.,[17]; GALAP 24-31 DAA 300 g a.c./ha,18%
same,PYR h.e.,[17]; GALAP 24-31 DAA 600 g a.c./ha,30%
same,PYR h.e.,[17]; GALAP 24-31 DAA 900 g a.c./ha,38%
same,PYR h.e.,[18]; MATCH 14-20 DAA 300 g a.c./ha,25%
same,PYR h.e.,[18]; MATCH 14-20 DAA 600 g a.c./ha,45%
same,PYR h.e.,[18]; MATCH 14-20 DAA 900 g a.c./ha,61%
same,PYR h.e.,[18]; MATCH 24-31 DAA 300 g a.c./ha,5%
same,PYR h.e.,[18]; MATCH 24-31 DAA 600 g a.c./ha,26%
same,PYR h.e.,[18]; MATCH 24-31 DAA 900 g a.c./ha,39%
same,PYR h.e.,[19]; SETVI 14-20 DAA 300 g a.c./ha,10%
same,PYR h.e.,[19]; SETVI 14-20 DAA 600 g a.c./ha,20%
same,PYR h.e.,[19]; SETVI 14-20 DAA 900 g a.c./ha,25%
same,PYR h.e.,[19]; SETVI 24-31 DAA 300 g a.c./ha,0%
same,PYR h.e.,[19]; SETVI 24-31 DAA 600 g a.c./ha,0%
same,PYR h.e.,[19]; SETVI 24-31 DAA 900 g a.c./ha,0%
